Assay results: paper PMC3499949 (Journal of medicinal chemistry, 2012)

Experiments:
hMOR [1] = biological target: T1, hMOR (Homo sapiens, UniProt P35372); test: [35S]GTP-γ-S binding assay, agonist stimulation, MOR; type: biochemical; conditions: stimulation of [35S]GTP-γ-S binding; no stim = no stimulation at 10 µM
DOR [2] = biological target: T2, DOR (Mus musculus, UniProt P32300); test: [35S]GTP-γ-S binding assay, agonist stimulation, DOR; conditions: for DOR EC50: stimulation of [35S]GTP-γ-S binding, no stim = no stimulation at 10 µM
T2 sequence (P32300 whole entry): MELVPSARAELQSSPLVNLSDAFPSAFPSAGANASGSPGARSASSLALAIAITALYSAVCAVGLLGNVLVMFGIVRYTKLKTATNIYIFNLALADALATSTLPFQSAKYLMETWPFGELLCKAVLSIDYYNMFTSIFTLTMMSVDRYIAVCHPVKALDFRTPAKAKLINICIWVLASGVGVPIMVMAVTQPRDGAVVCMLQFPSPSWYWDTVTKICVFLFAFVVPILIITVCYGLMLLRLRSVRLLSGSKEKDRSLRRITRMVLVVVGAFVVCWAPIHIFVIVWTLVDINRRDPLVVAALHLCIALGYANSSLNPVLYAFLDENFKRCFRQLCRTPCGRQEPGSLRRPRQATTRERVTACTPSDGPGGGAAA

DOR [3] = biological target: T2, DOR; test: [35S]GTP-γ-S binding assay, antagonist shift design, DOR; type: biochemical
hMOR [4] = biological target: T1, hMOR; test: [35S]GTP-γ-S binding assay, antagonist shift design, MOR; type: biochemical
hKOR [5] = biological target: T3, hKOR (Homo sapiens, UniProt P41145); test: [35S]GTP-γ-S binding assay, antagonist shift design, KOR; type: biochemical
T3 sequence (P41145 whole entry): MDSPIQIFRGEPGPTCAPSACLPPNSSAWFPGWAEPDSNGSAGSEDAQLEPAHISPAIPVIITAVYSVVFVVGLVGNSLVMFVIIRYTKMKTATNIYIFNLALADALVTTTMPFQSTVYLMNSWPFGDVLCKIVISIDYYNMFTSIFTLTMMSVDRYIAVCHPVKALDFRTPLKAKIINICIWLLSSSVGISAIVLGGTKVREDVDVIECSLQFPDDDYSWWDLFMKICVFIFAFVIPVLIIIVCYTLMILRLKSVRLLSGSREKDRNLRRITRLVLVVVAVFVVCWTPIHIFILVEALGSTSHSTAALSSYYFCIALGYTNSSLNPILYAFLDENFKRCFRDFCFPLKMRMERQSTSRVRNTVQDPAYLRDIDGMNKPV

mice [6] = test: 55 °C warm-water tail-withdrawal assay, i.c.v. administration; type: in vivo, Male ICR mice; conditions: mouse
mice [7] = type: in vivo, Male ICR mice; conditions: mouse, i.c.v.
hKOR [8] = biological target: T3, hKOR; test: [35S]GTP-γ-S binding assay, agonist stimulation, KOR; type: biochemical; conditions: stimulation of [35S]GTP-γ-S binding; no stim = no stimulation at 10 µM
hDOR = hDOR (Homo sapiens, UniProt P41143); test: Radioligand displacement binding, [3H]DADLE, CHO cell membranes expressing hDOR; conditions: 18a vs 17b, 18d vs 17f
hDOR, sequence (P41143 whole entry): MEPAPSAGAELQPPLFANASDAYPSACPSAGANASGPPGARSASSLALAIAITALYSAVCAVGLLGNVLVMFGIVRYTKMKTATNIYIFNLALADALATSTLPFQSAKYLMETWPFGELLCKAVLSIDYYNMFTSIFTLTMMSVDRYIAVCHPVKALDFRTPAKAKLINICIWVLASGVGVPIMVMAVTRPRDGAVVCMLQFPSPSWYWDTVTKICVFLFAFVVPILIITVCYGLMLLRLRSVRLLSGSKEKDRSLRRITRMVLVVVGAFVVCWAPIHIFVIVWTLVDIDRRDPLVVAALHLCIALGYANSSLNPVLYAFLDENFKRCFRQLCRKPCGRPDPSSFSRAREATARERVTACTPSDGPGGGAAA

T1 sequence (P35372 whole entry): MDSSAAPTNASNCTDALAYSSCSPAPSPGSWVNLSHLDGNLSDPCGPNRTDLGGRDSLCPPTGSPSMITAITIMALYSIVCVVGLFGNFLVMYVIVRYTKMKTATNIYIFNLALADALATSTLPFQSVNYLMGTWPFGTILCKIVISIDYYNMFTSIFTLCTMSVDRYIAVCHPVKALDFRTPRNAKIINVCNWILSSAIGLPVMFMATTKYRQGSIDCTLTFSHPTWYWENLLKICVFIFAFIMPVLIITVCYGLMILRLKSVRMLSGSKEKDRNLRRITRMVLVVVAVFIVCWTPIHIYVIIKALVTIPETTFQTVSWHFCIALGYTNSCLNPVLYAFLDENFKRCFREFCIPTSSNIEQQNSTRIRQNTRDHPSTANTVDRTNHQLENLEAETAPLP

Structure (SMILES)	MOR EC50 (hMOR [1])	DOR EC50 (DOR [2])	Kb (DOR [3]) [nM]	Kb (hMOR [4]) [nM]	Kb (hKOR [5]) [nM]	dose for maximal antinociception (mice [6]) [nmol]	fold weaker analgesic effect than other tested ligands (mice [6]; tail-withdrawal) [fold]	EC50 (DOR [2]) [nM]	toxicity on repeated administration (mice [7])	KOR EC50 (hKOR [8])	fold weaker in binding to DOR compared to 14-benzyloxy counterpart (hDOR) [fold]
CO[C@@]12Cc3cc(-c4ccc(Cl)cc4)cnc3[C@@H]3Oc4c(O)ccc5c4[C@@]31CCN(CC1CC1)[C@@H]2C5 [17a, 5′-(4-Chlorophenyl)-17-(cyclopropylmethyl)-6,7-didehydro-4,5α-epoxy-3-hydroxy-14-methoxypyrido[2′,3′:6,7]morphinan]	no stim	no stim ^b									
Oc1ccc2c3c1O[C@H]1c4ncc(-c5ccc(Cl)cc5)cc4C[C@@]4(OCc5ccccc5)[C@@H](C2)N(CC2CC2)CC[C@]314 [17b, 14-(Benzyloxy)-5′-(4-chlorophenyl)-17-(cyclopropylmethyl)-6,7-didehydro-4,5α-epoxy-3-hydroxypyrido[2′,3′:6,7]morphinan]	no stim	no stim	0.64 ± 0.11	11 ± 1	13 ± 3						
Oc1ccc2c3c1O[C@H]1c4ncc(-c5ccc(Cl)cc5)cc4C[C@@]4(OC/C=C/c5ccccc5)[C@@H](C2)N(CC2CC2)CC[C@]314 [17c, 5′-(4-Chlorophenyl)-14-cinnamyloxy-17-(cyclopropylmethyl)-6,7-didehydro-4,5α-epoxy-3-hydroxypyrido[2′,3′:6,7]morphinan]	no stim	no stim									
Oc1ccc2c3c1O[C@H]1c4ncc(-c5ccc(Cl)cc5)cc4C[C@@]4(OCCCc5ccccc5)[C@@H](C2)N(CC2CC2)CC[C@]314 [17d, 5′-(4-Chlorophenyl)-17-(cyclopropylmethyl)-6,7-didehydro-4,5α-epoxy-3-hydroxy-14-(3-phenylpropoxy)pyrido[2′,3′:6,7]morphinan]		no stim	0.091 ± 0.01			1					
CO[C@@]12Cc3cc(-c4ccc(Cl)cc4)cnc3[C@@H]3Oc4c(O)ccc5c4[C@@]31CCN(C)[C@@H]2C5 [17e, 5′-(4-Chlorophenyl)-6,7-didehydro-4,5α-epoxy-3-hydroxy-14-methoxy-17-methylpyrido[2′,3′:6,7]morphinan]		no stim	1.6 ± 0.35		17 ± 0.13	10	6				
CN1CC[C@]23c4c5ccc(O)c4O[C@H]2c2ncc(-c4ccc(Cl)cc4)cc2C[C@@]3(OCc2ccccc2)[C@H]1C5 [17f, 14-Benzyloxy-5′-(4-chlorophenyl)-6,7-didehydro-4,5α-epoxy-3-hydroxy-17-methylpyrido[2′,3′:6,7]morphinan]			4.54 ± 0.81		83 ± 14			11 ± 1			
CN1CC[C@]23c4c5ccc(O)c4O[C@H]2c2ncc(-c4ccc(Cl)cc4)cc2C[C@@]3(OC/C=C/c2ccccc2)[C@H]1C5 [17g, 5′-(4-Chlorophenyl)-14-cinnamyloxy-6,7-didehydro-4,5α-epoxy-3-hydroxy-17-methylpyrido[2′,3′:6,7]morphinan]						1		0.59 ± 0.05	undue toxicity		
CN1CC[C@]23c4c5ccc(O)c4O[C@H]2c2ncc(-c4ccc(Cl)cc4)cc2C[C@@]3(OCCCc2ccccc2)[C@H]1C5 [17h, 5′-(4-Chlorophenyl)-6,7-didehydro-4,5α-epoxy-3-hydroxy-17-methyl-14-(3-phenylpropoxy)pyrido[2′,3′:6,7]morphinan]					6.9 ± 0.02	1		0.27 ± 0.03	undue toxicity	no stim	
O=C(O[C@@]12Cc3cc(-c4ccc(Cl)cc4)cnc3[C@@H]3Oc4c(O)ccc5c4[C@@]31CCN(CC1CC1)[C@@H]2C5)c1ccccc1 [18a, 14-Benzoyloxy-5′-(4-chlorophenyl)-17-(cyclopropylmethyl)-6,7-didehydro-4,5α-epoxy-3-hydroxypyrido[2′,3′:6,7]morphinan]	no stim	no stim	218 ± 2	261 ± 36	126 ± 13					no stim	45
O=C(Cc1ccccc1)O[C@@]12Cc3cc(-c4ccc(Cl)cc4)cnc3[C@@H]3Oc4c(O)ccc5c4[C@@]31CCN(CC1CC1)[C@@H]2C5 [18b, 5′-(4-Chlorophenyl)-17-(cyclopropylmethyl)-6,7-didehydro-4,5α-epoxy-3-hydroxy-14-(phenylacetoxy)pyrido[2′,3′:6,7]morphinan]	no stim	no stim	0.37 ± 0.04	0.48 ± 0.06	7 ± 2						
O=C(CCc1ccccc1)O[C@@]12Cc3cc(-c4ccc(Cl)cc4)cnc3[C@@H]3Oc4c(O)ccc5c4[C@@]31CCN(CC1CC1)[C@@H]2C5 [18c, 5′-(4-Chlorophenyl)-17-(cyclopropylmethyl)-6,7-didehydro-4,5α-epoxy-3-hydroxy-14-(3-phenylpropionyloxy)pyrido[2′,3′:6,7]morphinan]	no stim	no stim	1.86 ± 0.21	13 ± 1.7	14 ± 2						
CN1CC[C@]23c4c5ccc(O)c4O[C@H]2c2ncc(-c4ccc(Cl)cc4)cc2C[C@@]3(OC(=O)c2ccccc2)[C@H]1C5 [18d, 14-Benzoyloxy-5′-(4-chlorophenyl)-6,7-didehydro-4,5α-epoxy-3-hydroxy-17-methylpyrido[2′,3′:6,7]morphinan]		no stim	45 ± 6	1270 ± 166	426 ± 47					no stim	10
CN1CC[C@]23c4c5ccc(O)c4O[C@H]2c2ncc(-c4ccc(Cl)cc4)cc2C[C@@]3(OC(=O)Cc2ccccc2)[C@H]1C5 [18e, 5′-(4-Chlorophenyl)-6,7-didehydro-4,5α-epoxy-3-hydroxy-17-methyl-14-(phenylacetoxy)pyrido[2′,3′:6,7]morphinan]			3.38 ± 0.34		198 ± 20			19 ± 6			
CN1CC[C@]23c4c5ccc(O)c4O[C@H]2c2ncc(-c4ccc(Cl)cc4)cc2C[C@@]3(OC(=O)CCc2ccccc2)[C@H]1C5 [18f, 5′-(4-Chlorophenyl)-6,7-didehydro-4,5α-epoxy-3-hydroxy-17-methyl-14-(3-phenylpropionyloxy)pyrido[2′,3′:6,7]morphinan]			1.64 ± 0.3		18 ± 0.2			5.52 ± 0.53			
CN1CC[C@]23c4c5ccc(O)c4O[C@H]2[C@@H](O)C=C[C@H]3[C@H]1C5 [Morphine, reference compound]						10					
Oc1ccc2c3c1O[C@H]1c4ncc(-c5ccc(Cl)cc5)cc4C=C4[C@@H](C2)N(CC2CC2)CC[C@]431 [compound 23, 5′-(4-Chlorophenyl)-17-(cyclopropylmethyl)-3-hydroxy-6,7,8,14-tetradehydro-4,5α-epoxypyrido[2′,3′:6,7]morphinan]	no stim	no stim	0.58 ± 0.1	8 ± 0.89	19 ± 3					no stim	
